The target in this experiment is T1, biotinylated human IL-17 (binding to IL17R/Fc) (Homo sapiens, UniProt Q16552).
T1 construct: purchased R&D Systems 317-ILB (IL-17, biotinylated); 177-IR (IL17R/Fc)
T1 sequence (Q16552 20-155 limits assumed): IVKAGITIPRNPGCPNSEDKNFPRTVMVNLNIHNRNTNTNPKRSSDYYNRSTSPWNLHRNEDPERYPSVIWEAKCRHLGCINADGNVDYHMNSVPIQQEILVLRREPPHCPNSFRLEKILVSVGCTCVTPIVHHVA
Kind of experiment: IL-17 competition ELISA II (captured IL17R/Fc, biotinylated IL-17). Summed up:
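Anti-human IgG-coated plates captured IL17R/Fc (10 nM), then compound (5-fold dilutions from 1 μM) and biotinylated human IL-17 (20 nM stock) were added for 30 min at room temperature in PBST. Bound IL-17 detected by streptavidin-HRP/TMB at 450 nm. IC50 from 4-parameter logistic fit between no-competitor and blank controls.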
Background: ELISA stands for enzyme-linked immunosorbent assay.
For `O=C1CNC(=O)[C@H](Cc2ccc(NC(=O)[C@@H](Cc3ccccc3Cl)NC(=O)Cc3ccccc3)cc2)NC(=O)CC2(CCCC2)CC(=O)N[C@@H](C(=O)O)CCCCN1` [Compound 454], the IC50 was 1000 to 10000 nM.

Take `O=C1CNC(=O)[C@@H](Cc2ccc(NC(=O)[C@@H](NC(=O)c3cncc4ccccc34)C3CCCCC3)cc2)NC(=O)CC2(CCCC2)CC(=O)NCCCCCN1` [Compound 450]: the IC50 is less than 100 nM.

As for `O=C1CC2(CCCC2)CC(=O)N[C@H](Cc2ccc(NC(=O)[C@H](Cc3ccccc3Cl)NC(=O)[C@@H](O)c3ccccc3)cc2)C(=O)NCCCCCN1` [Compound 546], the IC50 fell in the range of 100 to 1000 nM.

Regarding `C[C@H]1NC(=O)[C@@H](Cc2ccc(NC(=O)[C@H](Cc3ccccc3Cl)NC(=O)OCc3ccccc3)cc2)NC(=O)CC2(CCCC2)CC(=O)NCCCCCNC1=O` [Compound 576], the IC50 is less than 100 nM.

On to `CC(=O)N[C@H](C(=O)Nc1ccc(C[C@H]2NC(=O)CC3(CCCC3)CC(=O)OCCCCCNC(=O)CNC2=O)cc1)C1CCCCC1` [Compound 673], for which the IC50 is less than 100 nM.

Turning to `CN1CCOCCOCCNC(=O)[C@@H](Cc2ccc(NC(=O)[C@H](Cc3ccccc3Cl)NC(=O)C(F)(F)c3ccccc3)cc2)NC(=O)CC2(CCCC2)CC1=O` [Compound 565], the IC50 is less than 100 nM.

For the compound `O=C1CC2(CCCC2)CC(=O)N[C@H](Cc2ccc(NC(=O)[C@@H](NC(=O)Cc3cccc(O)c3)C3CCCCC3)cc2)C(=O)NCCOCCOCCN1` [Compound 647], the IC50 is less than 100 nM.

In the case of `CN1CCOCCOCCN(C)C(=O)[C@@H](Cc2ccc(NC(=O)[C@H](Cc3ccccc3Cl)NC(=O)C(F)(F)c3ccccc3)cc2)NC(=O)CC2(CCCC2)CC1=O` [Compound 591], the IC50 is less than 100 nM.

Take `O=C1CC2(CCCC2)CC(=O)N[C@H](Cc2ccc(NC(=O)[C@@H](NC(=O)Cc3ccc(F)cc3)C3CCCCC3)cc2)C(=O)NCCCCN1` [Compound 410]: the IC50 is 100 to 1000 nM.

Turning to `C[C@H]1NC(=O)[C@@H](Cc2ccc(NC(=O)[C@H](Cc3ccccc3Cl)NC(=O)C(=O)c3ccccc3)cc2)NC(=O)CC2(CCCC2)CC(=O)N(C)CCN(C)CCN(C)C1=O` [Compound 573], the IC50 is less than 100 nM.

For `C[C@H]1NC(=O)[C@@H](Cc2ccc(NC(=O)[C@H](Cc3ccccc3Cl)NC(=O)Oc3ccccc3)cc2)NC(=O)CC2(CCCC2)CC(=O)NCCCCCNC1=O` [Compound 586], the half-maximal inhibitory concentration (IC50) was less than 100 nM.

As for `O=C1CNC(=O)[C@@H](Cc2ccc(NC(=O)[C@@H](NC(=O)C(F)F)C3CCCCC3)cc2)NC(=O)CC2(CCCC2)CC(=O)OCCCCCN1` [Compound 672], the IC50 was less than 100 nM.

As for `CC(=O)N[C@@H](Cc1ccccc1Cl)C(=O)Nc1ccc(C[C@H]2NC(=O)CC3(CCCC3)CC(=O)N[C@H](C(=O)O)CCCCNC2=O)cc1` [Compound 456], the IC50 is 100 to 1000 nM.

In the case of `CN1C(=O)CC2(CCCC2)CC(=O)NCCOCCOCCNC(=O)[C@H]1Cc1ccc(NC(=O)[C@H](Cc2ccccc2Cl)NC(=O)Cc2ccc(F)cc2)cc1` [Compound 477], the IC50 is less than 100 nM.

Turning to `CN1CCCC[C@@H](C(=O)O)N(C)C(=O)CC2(CCCC2)CC(=O)N[C@H](Cc2ccc(NC(=O)[C@H](Cc3ccccc3Cl)NC(=O)C(F)(F)c3ccccc3)cc2)C(=O)N[C@H](CCC(N)=O)C1=O` [Compound 667], the IC50 was less than 100 nM.

Take `CC(O)[C@H]1NC(=O)[C@@H](Cc2ccc(NC(=O)[C@@H](NC(=O)C(F)(F)c3ccccc3)C3CCCCC3)cc2)NC(=O)CC2(CCCC2)CC(=O)N(C)CCOCCN(C)C1=O` (some centres unmarked) [Compound 655]: the IC50 was less than 100 nM.

In the case of `CC(=O)N[C@@H](Cc1ccccc1Cl)C(=O)Nc1ccc(C[C@H]2NC(=O)CC3(CCCC3)CC(=O)NCCCCCNC(=O)[C@@H](C)NC2=O)cc1` [Compound 468], the IC50 is less than 100 nM.

`CN1CCCC[C@@H](C(=O)O)N(C)C(=O)CC2(CCCC2)CC(=O)N[C@H](Cc2ccc(NC(=O)[C@@H](NC(=O)C(F)(F)c3ccccc3)C3CCCCC3)cc2)C(=O)N[C@H](CCC(N)=O)C1=O` [Compound 668]: the half-maximal inhibitory concentration (IC50) is less than 100 nM.

For `O=C(Cc1ccc(F)cc1)N[C@@H](Cc1ccccc1Cl)C(=O)Nc1ccc(C[C@H]2NC(=O)CC3(CCCC3)CC(=O)OCCCC/C=C/CNC2=O)cc1` [Compound 500], the IC50 is less than 100 nM.

Regarding `CN1CCCCCOC(=O)CC2(CCCC2)CC(=O)N[C@H](Cc2ccc(NC(=O)[C@@H](NC(=O)C(F)(F)c3ccccc3)C3CCCCC3)cc2)C(=O)NCC1=O` [Compound 679], the IC50 is less than 100 nM.

Regarding `O=C1CNC(=O)[C@@H](Cc2ccc(NC(=O)[C@@H](NC(=O)Cc3ccccc3)c3ccccc3)cc2)NC(=O)CC2(CCCC2)CC(=O)NCCCCCN1` [Compound 415], the IC50 is 100 to 1000 nM.

Take `O=C1CNC(=O)[C@@H](Cc2ccc(NC(=O)[C@@H](NC(=O)c3ccc(F)cc3)C3CCCCC3)cc2)NC(=O)CC2(CCCC2)CC(=O)NCCCCCN1` [Compound 403]: the IC50 was less than 100 nM.

Turning to `C[C@H]1NC(=O)[C@@H](Cc2ccc(NC(=O)[C@H](Cc3ccccc3Cl)NC(=O)C(F)(F)c3ccccc3)cc2)NC(=O)CC2(CCCC2)NC(=O)CCNC(=O)CCNC1=O` [Compound 635], the IC50 is less than 100 nM.

As to `O=C1CC2(CCCC2)CC(=O)N[C@H](Cc2ccc(NC(=O)[C@H](Cc3ccccc3Cl)NC(=O)c3cccnc3)cc2)C(=O)N[C@@H](CO)C(=O)NCCCC[C@@H](C(=O)O)N1` [Compound 451], the IC50 is less than 100 nM.

For `O=C1CNC(=O)[C@@H](Cc2ccc(NC(=O)[C@H](Cc3ccccc3Cl)NCc3ccccc3)cc2)NC(=O)CC2(CCCC2)CC(=O)NCCCCCN1` [Compound 503], the IC50 was in the range of 1000 to 10000 nM.

For the compound `O=C1CC2(CCCC2)CC(=O)N[C@H](Cc2ccc(NC(=O)[C@H](Cc3ccccc3Cl)NC(=O)Cc3ccc(F)cc3)cc2)C(=O)NCCN2CCN(CCN1)CC2` [Compound 532], the IC50 lay within 100 to 1000 nM.

Take `CN1CCNCCOC(=O)CC2(CCCC2)CC(=O)N(C)[C@H](Cc2ccc(NC(=O)[C@H](Cc3ccccc3Cl)NC(=O)Cc3ccccc3)cc2)C(=O)N[C@H](Cc2ccccc2)C1=O` [Compound 426]: the half-inhibitory concentration (IC50) was in the range of 100 to 1000 nM.

In the case of `C[C@H]1NC(=O)[C@@H](Cc2ccc(NC(=O)[C@H](Cc3ccccc3Cl)NC(=O)C3(c4ccc(F)cc4)CC3)cc2)NC(=O)CC2(CCCC2)CC(=O)N(C)CCN(C)CCN(C)C1=O` [Compound 563], the IC50 was in the range of 100 to 1000 nM.

Regarding `C[C@H]1NC(=O)[C@@H](Cc2ccc(NC(=O)[C@H](Cc3ccccc3Cl)NC(=O)C(F)(F)c3ccccc3)cc2)NC(=O)CC2(CCCC2)CC(=O)NCCN2CCN(CC2)C1=O` [Compound 533], the IC50 is 100 to 1000 nM.

With `O=C1CNC(=O)[C@H](Cc2ccc(NC(=O)[C@@H](Cc3ccccc3Cl)NC(=O)Cc3ccccc3)cc2)NC(=O)CC2(CCCC2)CC(=O)NCCCCCN1` [Compound 452], the IC50 is 1000 to 10000 nM.

`C[C@H]1NC(=O)[C@@H](Cc2ccc(NC(=O)[C@@H](Nc3nc4ccccc4o3)C3CCCCC3)cc2)NC(=O)CC2(CCCC2)CC(=O)N(C)CCCCCN(C)C1=O` [Compound 665]: the IC50 was less than 100 nM.

As for `C[C@H]1NC(=O)[C@@H](Cc2ccc(NC(=O)[C@H](Cc3ccccc3Cl)NC(=O)Cc3ccc(F)cc3)cc2)NC(=O)CN(Cc2ccccc2)CC(=O)NCCCCCNC1=O` [Compound 557], the half-inhibitory concentration (IC50) was in the range of 100 to 1000 nM.

Regarding `COC(=O)N[C@@H](Cc1ccccc1Cl)C(=O)Nc1ccc(C[C@H]2NC(=O)CC3(CCCC3)CC(=O)N(C)CCN(C)CCN(C)C(=O)[C@@H](C)NC2=O)cc1` [Compound 588], the IC50 is less than 100 nM.

Take `C[C@H]1NC(=O)[C@@H](Cc2ccc(NC(=O)[C@H](Cc3ccccc3Cl)NC(=O)Cc3ccc(CO)cc3)cc2)NC(=O)CC2(CCCC2)CC(=O)NCc2cccc(c2)CNC1=O` [Compound 520]: the IC50 is less than 100 nM.

For `O=C1CC2(CCCC2)CC(=O)N[C@H](Cc2ccc(NC(=O)[C@@H](NC(=O)Cc3cccc(O)c3)c3ccccc3)cc2)C(=O)NCCOCCOCCN1` [Compound 481], the IC50 lay within 100 to 1000 nM.

Consider `C[C@H]1NC(=O)[C@@H](Cc2ccc(NC(=O)[C@H](Cc3ccccc3Cl)NC(=O)Cc3ccc(F)cc3)cc2)NC(=O)CC2(CCOCC2)NC(=O)CCCCCCNC1=O` [Compound 622], for which the IC50 fell in the range of 100 to 1000 nM.

As for `C[C@H]1NC(=O)[C@@H](Cc2ccc(NC(=O)[C@@H](NC(=O)Cc3ccc(N(C)C)cc3)C3CCCCC3)cc2)NC(=O)CC2(CCCC2)CC(=O)N(C)CCN(C)CCN(C)C1=O` [Compound 605], the half-inhibitory concentration (IC50) is less than 100 nM.

For the compound `CN1C(=O)CC2(CCCC2)CC(=O)N[C@H](C(=O)O)CCCCNC(=O)[C@@H](C(C)(C)C)NC(=O)[C@H]1Cc1ccc(NC(=O)[C@H](Cc2ccccc2Cl)NC(=O)C2(c3ccc(F)cc3)CC2)cc1` [Compound 514], the IC50 fell in the range of 100 to 1000 nM.

Turning to `O=C1CNC(=O)[C@@H](Cc2ccc(NC(=O)[C@@H](NC(=O)C(F)(F)c3ccccc3)C3CCCCC3)cc2)NC(=O)CC2(CCCC2)CC(=O)OCCCCCN1` [Compound 671], the IC50 was less than 100 nM.

With `C[C@H]1NC(=O)[C@@H](Cc2ccc(NC(=O)[C@H](Cc3ccccc3Cl)NC(=O)C(F)(F)c3ccccc3)cc2)NC(=O)CC2(CCCC2)NC(=O)CCNC(=O)CCN(C)C1=O` [Compound 636], the IC50 was less than 100 nM.

As for `CN(C)c1ccc(CC(=O)N[C@H](C(=O)Nc2ccc(C[C@H]3NC(=O)CC4(CCCC4)CC(=O)NCCCCCCCCNC3=O)cc2)C2CCCCC2)cc1` [Compound 599], the IC50 was less than 100 nM.

Consider `O=C(Cc1ccccc1)N[C@@H](Cc1ccccc1Cl)C(=O)Nc1ccc(C[C@H]2NC(=O)CC3(CCCC3)CC(=O)OCCNCCNC(=O)[C@@H](Cc3ccccc3)NC2=O)cc1` [Compound 444], for which the IC50 was less than 100 nM.

As for `CCC(F)(F)C(=O)N[C@H](C(=O)Nc1ccc(C[C@H]2NC(=O)CC3(CCCC3)CC(=O)OCCCCCNC(=O)CNC2=O)cc1)C1CCCCC1` [Compound 677], the IC50 was in the range of 100 to 1000 nM.

With `C[C@H]1NC(=O)[C@@H](Cc2ccc(NC(=O)[C@H](Cc3ccccc3Cl)NC(=O)C(=O)c3ccccc3)cc2)NC(=O)CC2(CCCC2)CC(=O)N(C)CCOCCN(C)C1=O` [Compound 594], the IC50 was less than 100 nM.

In general, IC50 refers to the point on the concentration scale where inhibition reaches its midpoint.

The values above are taken from patent US9284283B2, “Macrocyclic compounds for modulating IL-17” (ENSEMBLE THERAPEUTICS CORPORATION, priority 2012, dated 2016).
